Assay results published in US8642585B2, “Indanyloxydihydrobenzofuranylacetic acids” (Boehringer Ingelheim International GmbH, priority 2012, dated 2014).

molecular target: T1, human GPR40 receptor (Homo sapiens, UniProt O14842); assay: Assay I: IP1 accumulation (IPOne HTRF) in 1321N1 cells stably expressing human GPR40; assay type: cell-based; conditions: 1321N1 cells expressing human GPR40, stimulation 1 hour at 37° C., 10% CO2, final LiCl 50 mM
Procedure: IP1 accumulation measurements using the IPOne assay system—1321N1 cells stably expressing human GPR40 receptor (Euroscreen, Belgium) are seeded 24 h before the assay in black clear-bottom collagen-coated 384-well plates in culture medium containing 10% FCS, 1% Na-Pyruvate and 400 μg/mL G418. IP1 is assayed according to the Manufacturers description (Cisbio Bioassays, France). In brief, the assay is started by substitution of the culture medium by stimulation buffer (Hepes 10 mM, CaCl2 1 mM, MgCl2 0.5 mM, KCl 4.2 mM, NaCl 146 mM and glucose 5.5 mM, pH 7.4) without LiCl. Cells are stimulated for 1 hour at 37° C., 10% CO2 by addition of the compounds that are diluted in stimulation buffer containing LiCl yielding a final LiCl concentration of 50 mM. Assays are stopped by adding HTRF-conjugates (IP1-d2 and Anti-IP1 cryptate Tb) and lysis buffer, provided by the manufacturer. After an incubation time of 1 hour at room temperature plates are measured using an EnVision™, Perkin Elmer. The obtained fluorescence ratios at 665/615 nM are then used to calculate the pEC50 values using GraphPad Prism 5 (Graphpad Software Inc, USA) by interpolation using an IP1 reference curve and subsequent sigmoidal curve fitting allowing for a variable hill slope.

T1 sequence (O14842 whole entry): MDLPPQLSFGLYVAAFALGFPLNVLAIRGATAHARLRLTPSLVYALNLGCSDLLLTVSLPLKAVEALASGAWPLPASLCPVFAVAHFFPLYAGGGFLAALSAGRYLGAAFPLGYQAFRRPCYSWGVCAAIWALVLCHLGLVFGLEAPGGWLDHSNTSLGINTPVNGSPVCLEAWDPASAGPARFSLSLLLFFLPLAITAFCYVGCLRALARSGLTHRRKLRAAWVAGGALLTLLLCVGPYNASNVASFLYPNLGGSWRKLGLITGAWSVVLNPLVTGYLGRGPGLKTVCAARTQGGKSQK

Question: How did the EC50 turn out when `Cc1cc(OCC2(C)COC2)cc(C)c1-c1ccc(F)c2c1CC[C@H]2Oc1ccc2c(c1)OC[C@H]2CC(=O)O` [Example 1, 2-((S)-6-((R)-4-(2,6-dimethyl-4-((3-methyloxetan-3-yl)methoxy)phenyl)-7-fluoro-2,3-dihydro-1H-inden-1-yloxy)-2,3-dihydrobenzofuran-3-yl)acetic acid] was run?
Answer: 4 nM

Question: How did the EC50 turn out when `Cc1cc(OCC2CCOC2)cc(C)c1-c1ccc(F)c2c1CC[C@H]2Oc1ccc2c(c1)OC[C@H]2CC(=O)O` (stereo partly drawn) [Example 2, 2-((3S)-6-((1R)-4-(2,6-dimethyl-4-((tetrahydrofuran-3-yl)methoxy)phenyl)-7-fluoro-2,3-dihydro-1H-inden-1-yloxy)-2,3-dihydrobenzofuran-3-yl)acetic acid] was run?
Answer: 5 nM

Question: Which EC50 does the source give for `Cc1cc(OCC2CCCO2)cc(C)c1-c1ccc(F)c2c1CC[C@H]2Oc1ccc2c(c1)OC[C@H]2CC(=O)O` (stereo partly drawn) [Example 3, 2-((3S)-6-((1R)-4-(2,6-dimethyl-4-((tetrahydrofuran-2-yl)methoxy)phenyl)-7-fluoro-2,3-dihydro-1H-inden-1-yloxy)-2,3-dihydrobenzofuran-3-yl)acetic acid] here?
Answer: 6 nM

Question: `Cc1cc(OCCC(C)(C)O)cc(C)c1-c1ccc(F)c2c1CC[C@H]2Oc1ccc2c(c1)OC[C@H]2CC(=O)O` [Example 4, 2-((S)-6-((R)-7-Fluoro-4-(4-(3-hydroxy-3-methylbutoxy)-2,6-dimethylphenyl)-2,3-dihydro-1H-inden-1-yloxy)-2,3-dihydrobenzofuran-3-yl)acetic acid] was tested. Which EC50 did it give?
Answer: 5 nM

Question: For `Cc1cc(OCC[S+](C)[O-])cc(C)c1-c1ccc(F)c2c1CC[C@H]2Oc1ccc2c(c1)OC[C@H]2CC(=O)O` (stereo partly drawn) [Example 5, 2-((3S)-6-((1R)-4-(2,6-Dimethyl-4-(2-(methylsulfinyl)ethoxy)phenyl)-7-fluoro-2,3-dihydro-1H-inden-1-yloxy)-2,3-dihydrobenzofuran-3-yl)acetic acid], which EC50 is on record?
Answer: 19 nM

Question: With `Cc1cc(OCCS(C)(=O)=O)cc(C)c1-c1ccc(F)c2c1CC[C@H]2Oc1ccc2c(c1)OC[C@H]2CC(=O)O` [Example 6, 2-((S)-6-((R)-4-(2,6-Dimethyl-4-(2-(methylsulfonyl)ethoxy)phenyl)-7-fluoro-2,3-dihydro-1H-inden-1-yloxy)-2,3-dihydrobenzofuran-3-yl)acetic acid] as the compound, how does the EC50 read?
Answer: 22 nM

molecular target: T1, human GPR40 receptor; assay: Assay II: IP1 accumulation (IPOne HTRF) in 1321N1 cells stably expressing human GPR40; assay type: cell-based; conditions: 1321N1 cells expressing human GPR40, stimulation 1 h at 37° C., 5% CO2, LiCl 50 mM
How it was run: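 1321N1 cells stably expressing human GPR40, seeded 24 h earlier, were stimulated with compound for 1 h at 37 °C in LiCl (50 mM) buffer, pH 7.4. IP1 measured by HTRF (665/615 ratio) after lysis and 1 h room temperature; pEC50 via IP1 reference curve and variable-slope sigmoidal fit.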

Question: How did the EC50 turn out when `Cc1nc(-c2cc(C)c(-c3ccc(F)c4c3CC[C@H]4Oc3ccc4c(c3)OC[C@H]4CC(=O)O)c(C)c2)no1` [Example 134, {(S)-6-[(R)-4-(2,6-Dimethyl-4-(5-methyl-[1,2,4]oxadiazol-3-yl)-phenyl)-7-fluoro-indan-1-yloxy]-2,3-dihydro-benzofuran-3-yl}-acetic acid] was run?
Answer: 3 nM

Question: Which EC50 does the source give for `COc1ccc(-c2cc(C)c(-c3ccc(F)c4c3CC[C@H]4Oc3ccc4c(c3)OC[C@H]4CC(=O)O)c(C)c2)nc1` [Example 135, {(S)-6-[(R)-4-(2,6-Dimethyl-4-(5-methoxy-pyridin-2-yl)-phenyl)-7-fluoro-indan-1-yloxy]-2,3-dihydro-benzofuran-3-yl}-acetic acid] here?
Answer: 7 nM

Question: Which EC50 does the source give for `Cc1cc(-c2noc(C(C)(C)O)n2)cc(C)c1-c1ccc(F)c2c1CC[C@H]2Oc1ccc2c(c1)OC[C@H]2CC(=O)O` [Example 136, {(S)-6-[(R)-4-(2,6-Dimethyl-4-(5-[2-hydroxy-prop-2-yl]-[1,2,4]oxadiazol-3-yl)-phenyl)-7-fluoro-indan-1-yloxy]-2,3-dihydro-benzofuran-3-yl}-acetic acid] here?
Answer: 3 nM

Question: How did the EC50 turn out when `Cc1cc(-c2ccccn2)cc(C)c1-c1ccc(F)c2c1CC[C@H]2Oc1ccc2c(c1)OC[C@H]2CC(=O)O` [Example 137, {(S)-6-[(R)-4-(2,6-Dimethyl-4-pyridin-2-yl-phenyl)-7-fluoro-indan-1-yloxy]-2,3-dihydro-benzofuran-3-yl}-acetic acid] was run?
Answer: 2 nM

Question: For `Cc1cccnc1-c1cc(C)c(-c2ccc(F)c3c2CC[C@H]3Oc2ccc3c(c2)OC[C@H]3CC(=O)O)c(C)c1` [Example 138, {(S)-6-[(R)-4-(2,6-Dimethyl-4-(3-methyl-pyridin-2-yl)-phenyl)-7-fluoro-indan-1-yloxy]-2,3-dihydro-benzofuran-3-yl}-acetic acid], which EC50 is on record?
Answer: 9 nM

Question: How did the EC50 turn out when `Cc1cccc(-c2cc(C)c(-c3ccc(F)c4c3CC[C@H]4Oc3ccc4c(c3)OC[C@H]4CC(=O)O)c(C)c2)n1` [Example 139, {(S)-6-[(R)-4-(2,6-Dimethyl-4-(6-methyl-pyridin-2-yl)-phenyl)-7-fluoro-indan-1-yloxy]-2,3-dihydro-benzofuran-3-yl}-acetic acid] was run?
Answer: 2 nM

Question: Which EC50 does the source give for `Cc1ccnc(-c2cc(C)c(-c3ccc(F)c4c3CC[C@H]4Oc3ccc4c(c3)OC[C@H]4CC(=O)O)c(C)c2)c1` [Example 140, {(S)-6-[(R)-4-(2,6-Dimethyl-4-(4-methyl-pyridin-2-yl)-phenyl)-7-fluoro-indan-1-yloxy]-2,3-dihydro-benzofuran-3-yl}-acetic acid] here?
Answer: 2 nM

Question: Which EC50 does the source give for `Cc1cc(C)nc(-c2cc(C)c(-c3ccc(F)c4c3CC[C@H]4Oc3ccc4c(c3)OC[C@H]4CC(=O)O)c(C)c2)c1` [Example 141, {(S)-6-[(R)-4-(2,6-Dimethyl-4-(4,6-dimethyl-pyridin-2-yl)-phenyl)-7-fluoro-indan-1-yloxy]-2,3-dihydro-benzofuran-3-yl}-acetic acid] here?
Answer: 3 nM

Question: How did the EC50 turn out when `Cc1cn(C)c(-c2cc(C)c(-c3ccc(F)c4c3CC[C@H]4Oc3ccc4c(c3)OC[C@H]4CC(=O)O)c(C)c2)n1` [Example 142, {(S)-6-[(R)-4-(2,6-Dimethyl-4-(1,4-dimethyl-imidazol-2-yl)-phenyl)-7-fluoro-indan-1-yloxy]-2,3-dihydro-benzofuran-3-yl}-acetic acid] was run?
Answer: 16 nM

Question: With `Cc1ccc(-c2cc(C)c(-c3ccc(F)c4c3CC[C@H]4Oc3ccc4c(c3)OC[C@H]4CC(=O)O)c(C)c2)nc1` [Example 143, {(S)-6-[(R)-4-(2,6-Dimethyl-4-(5-methyl-pyridin-2-yl)-phenyl)-7-fluoro-indan-1-yloxy]-2,3-dihydro-benzofuran-3-yl}-acetic acid] as the compound, how does the EC50 read?
Answer: 3 nM

Question: How did the EC50 turn out when `Cc1cc(-c2nccn2C)cc(C)c1-c1ccc(F)c2c1CC[C@H]2Oc1ccc2c(c1)OC[C@H]2CC(=O)O` [Example 144, {(S)-6-[(R)-4-(2,6-Dimethyl-4-(1-methyl-imidazol-2-yl)-phenyl)-7-fluoro-indan-1-yloxy]-2,3-dihydro-benzofuran-3-yl}-acetic acid] was run?
Answer: 17 nM

Question: How did the EC50 turn out when `Cc1cc(OCc2ccn(C)n2)cc(C)c1-c1ccc(F)c2c1CC[C@H]2Oc1ccc2c(c1)OC[C@H]2CC(=O)O` [Example 145, 2-((S)-6-((R)-4-(2,6-dimethyl-4-((1-methyl-1H-pyrazol-3-yl)methoxy)phenyl)-7-fluoro-2,3-dihydro-1H-inden-1-yloxy)-2,3-dihydrobenzofuran-3-yl)acetic acid] was run?
Answer: 15 nM

Question: `Cc1cc(OCc2ccn(C)c(=O)c2)cc(C)c1-c1ccc(F)c2c1CC[C@H]2Oc1ccc2c(c1)OC[C@H]2CC(=O)O` [Example 146, 2-((S)-6-((R)-4-(2,6-dimethyl-4-((1-methyl-2-oxo-1,2-dihydropyridin-4-yl)methoxy)phenyl)-7-fluoro-2,3-dihydro-1H-inden-1-yloxy)-2,3-dihydrobenzofuran-3-yl)acetic acid] was tested. Which EC50 did it give?
Answer: 7 nM

Question: With `Cc1cc(OCc2ncco2)cc(C)c1-c1ccc(F)c2c1CC[C@H]2Oc1ccc2c(c1)OC[C@H]2CC(=O)O` [Example 148, 2-((S)-6-((R)-4-(2,6-dimethyl-4-(oxazol-2-ylmethoxy)phenyl)-7-fluoro-2,3-dihydro-1H-inden-1-yloxy)-2,3-dihydrobenzofuran-3-yl)acetic acid] as the compound, how does the EC50 read?
Answer: 13 nM

Question: How did the EC50 turn out when `Cc1cc(OCc2nccn2C)cc(C)c1-c1ccc(F)c2c1CC[C@H]2Oc1ccc2c(c1)OC[C@H]2CC(=O)O` [Example 149, 2-((S)-6-((R)-4-(2,6-dimethyl-4-((1-methyl-1H-imidazol-2-yl)methoxy)phenyl)-7-fluoro-2,3-dihydro-1H-inden-1-yloxy)-2,3-dihydrobenzofuran-3-yl)acetic acid] was run?
Answer: 12 nM

Question: `Cc1cc(OCC2CCOCC2)cc(C)c1-c1ccc(F)c2c1CC[C@H]2Oc1ccc2c(c1)OC[C@H]2CC(=O)O` [Example 150, 2-((S)-6-((R)-4-(2,6-dimethyl-4-((tetrahydro-2H-pyran-4-yl)methoxy)phenyl)-7-fluoro-2,3-dihydro-1H-inden-1-yloxy)-2,3-dihydrobenzofuran-3-yl)acetic acid] was tested. Which EC50 did it give?
Answer: 6 nM

Question: With `Cc1cc(OCc2cnn(C)c2)cc(C)c1-c1ccc(F)c2c1CC[C@H]2Oc1ccc2c(c1)OC[C@H]2CC(=O)O` [Example 152, 2-((S)-6-((R)-4-(2,6-dimethyl-4-((1-methyl-1H-pyrazol-4-yl)methoxy)phenyl)-7-fluoro-2,3-dihydro-1H-inden-1-yloxy)-2,3-dihydrobenzofuran-3-yl)acetic acid] as the compound, how does the EC50 read?
Answer: 19 nM

Question: How did the EC50 turn out when “((S)-6-{(R)-4-[4-((R)-1,1-Dioxo- tetrahydro-1-thiophen-3- ylmethoxy)-2,6-dimethyl- phenyl]-7-fluoro-indan-1- yloxy}-2,3-dihydro-benzofuran- 3-yl)-acetic acid [Example 47]” was run?
Answer: 8 nM
